Source: patent US20240218011A1, “GLUCOCORTICOID RECEPTOR AGONISTS AND CONJUGATES THEREOF” (FireFly Bio, Inc., priority 2022, published 2024)
pEC50: −log10 of the molar value.

system: GR-GAL4 Reporter (Luc)-HEK293 cell line stably expressing membrane human BAFF (memBAFF); assay: GR-GAL4 luciferase reporter assay, memBAFF reporter cell line; assay type: cell-based; settings: Table 22, 24 hour incubation; * = low confidence in EC50 due to curve fit; read-out: EC50 (nM) Mem(BAFF) line
Procedure: (§1) To determine the level of GR agonism at the end of the incubation luciferase levels were determined with the Steady-Glo Luciferase Assay System (Promega, cat #E2520 or E2550). The results were analyzed with Graphpad Prism software v9.1 (Graphpad Inc) to determine EC50.
(§2) The memBAFF and parental GR-GAL4 luciferase cell reporter cell lines were plated in 96 well plates in complete DMEM media. […] To determine the level of GR agonism found for the different treatments, at the end of the incubation firefly luciferase was measured as per manufacturer's instructions with the Steady-Glo Luciferase Assay System (Promega, cat #E2520 or E2550) and then analyzed with Graphpad Prism software (Graphpad Inc v9.1) to determine EC50.

With belimumab [BAFF mAb (belimumab)] as the compound, how does the EC50 read?
The EC50 was > 500 nM.

same assay, conditions: memBAFF line, 500 nM-[…]

With belimumab [BAFF mAb (belimumab)] as the compound, how does the “GR agonism over the complete dilution series” value read?
Its value is “no GR agonism”.

system: Human monocyte derived dendritic cells and allogeneic CD3+ T cells; assay: Allo mixed lymphocyte assay (monocyte derived dendritic cells + allogeneic CD3+ T cells), cytokines by MSD ELISA; assay type: cell-based; settings: 100 nM, 48 hrs co-culture, mean of duplicates
Procedure: Human monocyte derived dendritic cells were derived in vitro from healthy human donor CD 14^+ monocytes, isolated from blood by standard cell marker negative selection with antibody coated beads, by culture of the monocytes under a standard dendritic cell generation protocol with added GM-CSF and IL4 for 6 days. […] Conjugates, protein, and small molecule controls were added at 100 nM immediately after. After 48 hrs of co-culture supernatants were collected from wells and cytokine levels for T cell derived cytokines (IL2, IFNγ) and dendritic cell derived cytokines (IL6, IL 12p40) were measured by MSD multiplex ELISA and plate reader per manufacturer's instructions (Meso Scale Diagnostics LLC).

CCCC1O[C@@H]2C[C@H]3[C@@H]4CCC5=CC(=O)C=C[C@]5(C)[C@H]4[C@@H](O)C[C@]3(C)[C@]2(C(=O)CO)O1 (stereo partly shown) [budesonide, reference compound] was tested. Which “IFNγ % Media” value did it give?
Its value is 1 % Media.

What about the “IL2 % Media” value of the same compound?
The value was 14 % Media.

What about the “IL12p40 % Media” value of the same compound?
Its value is 1 % Media.

What does the source list for belimumab [Anti-BAFF (belimumab)]?
IFNγ % Media: 140 % Media; IL2 % Media: 72 % Media; IL12p40 % Media: 139 % Media

same assay, conditions: 100 nM, 48 hrs co-culture, mean of duplicates; LLOQ = lower limit of quantitation in the MSD assay

How did the “IL6 % Media” value turn out when belimumab [Anti-BAFF (belimumab)] was run?
Its value is 121 % Media.

molecular target: T1, Glucocorticoid Receptor (GR) (Homo sapiens, UniProt P04150); assay: GR reporter assay (GR-GAL4 Reporter (Luc)-HEK293 cells, Steady-Glo luciferase); assay type: cell-based; settings: 24 hours, read-out: GR reporter agonist
T1 construct: A GAL4-responsive firefly luciferase reporter is the read-out; Some cells also express CD40, which is irrelevant for the free small molecules
T1 sequence (P04150 524-777 limits assumed): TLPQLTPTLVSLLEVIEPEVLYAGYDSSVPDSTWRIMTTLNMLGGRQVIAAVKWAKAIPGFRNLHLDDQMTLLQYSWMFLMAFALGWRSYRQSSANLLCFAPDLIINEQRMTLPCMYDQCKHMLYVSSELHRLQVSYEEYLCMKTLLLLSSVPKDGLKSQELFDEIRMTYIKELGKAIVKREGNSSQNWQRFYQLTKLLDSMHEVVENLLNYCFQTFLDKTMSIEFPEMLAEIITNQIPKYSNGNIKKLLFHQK
Procedure: Certain GR agonist compounds of the present disclosure were tested in a GR reporter assay. Briefly, CD40 expressing GR-GAL4 Reporter (Luc)-HEK293 or parental GR-GAL4 reporter (Luc)-HEK293 cells were harvested from culture and seeded wells at a density of ˜30,000 cells per well in 45 μl of assay medium. Cells were incubated at 37° C. in a CO2 incubator overnight. […] The plates were incubated at 37° C. in a CO2 incubator for 24 hours. The Steady-Glo Luciferase Assay System (Promega), following manufacturer's instructions, was used to detect luminescence, which was measured using a luminometer.
The average background luminescence (cell-free control wells) was substracted from the luminescence reading of all wells. […] The EC50 value for each conjugate was determined in both CD40 expressing and parental GR-GAL4 Reporter (Luc)-HEK293 cells and the ratio was used to as a measure of linker stability and non-specific uptake.

Cc1nn[nH]c1-c1ccc([C@@H]2O[C@@H]3C[C@H]4[C@@H]5CCC6=CC(=O)C=C[C@]6(C)[C@H]5[C@@H](O)C[C@]4(C)[C@]3(C(=O)CO)O2)cc1 [Compound 1] was tested. Which pEC50 did it give?
Its pEC50 is 7.65.

C[C@]12C=CC(=O)C=C1CC[C@@H]1[C@@H]2[C@@H](O)C[C@@]2(C)[C@H]1C[C@H]1O[C@@H](c3ccc(Cn4ccnn4)cc3)O[C@]12C(=O)CO [Compound 2] was tested. Which pEC50 did it give?
Its pEC50 is 7.77.

C[C@]12C=CC(=O)C=C1CC[C@@H]1[C@@H]2[C@@H](O)C[C@@]2(C)[C@H]1C[C@H]1O[C@@H](c3ccc(Cc4c[nH]nn4)cc3)O[C@]12C(=O)CO [Compound 3] was tested. Which pEC50 did it give?
The pEC50 was 7.60.

Cn1nccc1[C@@H]1O[C@@H]2C[C@H]3[C@@H]4CCC5=CC(=O)C=C[C@]5(C)[C@H]4[C@@H](O)C[C@]3(C)[C@]2(C(=O)CO)O1 [Compound 4] was tested. Which pEC50 did it give?
The pEC50 was 7.66.

How did the pEC50 turn out when Cn1cc([C@@H]2O[C@@H]3C[C@H]4[C@@H]5CCC6=CC(=O)C=C[C@]6(C)[C@H]5[C@@H](O)C[C@]4(C)[C@]3(C(=O)CO)O2)cn1 [Compound 5] was run?
Its pEC50 is 7.31.

With C[C@]12C=CC(=O)C=C1CC[C@@H]1[C@@H]2[C@@H](O)C[C@@]2(C)[C@H]1C[C@H]1O[C@@H](c3ccc4c(c3)OCO4)O[C@]12C(=O)CO [Compound 6] as the compound, how does the pEC50 read?
The pEC50 was 7.60.

C[C@]12C=CC(=O)C=C1CC[C@@H]1[C@@H]2[C@@H](O)C[C@@]2(C)[C@H]1C[C@H]1O[C@@H](c3ccc4c(c3)OCCO4)O[C@]12C(=O)CO [Compound 7] was tested. Which pEC50 did it give?
The pEC50 was 7.33.

With C[C@]12C=CC(=O)C=C1CC[C@H]1[C@@H]3C[C@H]4O[C@@H](c5ccccc5)O[C@@]4(C(=O)CO)[C@@]3(C)C[C@H](O)[C@@]12F [Compound 8] as the compound, how does the pEC50 read?
Its pEC50 is 8.96.

C[C@]12C=CC(=O)C=C1[C@@H](F)C[C@H]1[C@@H]3C[C@H]4O[C@@H](C5CCC5)O[C@@]4(C(=O)CO)[C@@]3(C)C[C@H](O)[C@@]12F [Compound 14] was tested. Which pEC50 did it give?
The pEC50 was 9.17.

How did the pEC50 turn out when C[C@]12C=CC(=O)C=C1[C@@H](F)C[C@H]1[C@@H]3C[C@H]4O[C@@H](C56CC(C5)C6)O[C@@]4(C(=O)CO)[C@@]3(C)C[C@H](O)[C@@]12F [Compound 15] was run?
The pEC50 was 8.54.

With C[C@]12C=CC(=O)C=C1[C@@H](F)C[C@H]1[C@@H]3C[C@H]4O[C@@H](c5cccc(F)c5)O[C@@]4(C(=O)CN)[C@@]3(C)C[C@H](O)[C@@]12F [Compound 16] as the compound, how does the pEC50 read?
Its pEC50 is 7.41.

How did the pEC50 turn out when C[C@]12C=CC(=O)C=C1[C@@H](F)C[C@H]1[C@@H]3C[C@H]4O[C@@H](c5ccc(Oc6ccccc6)c(F)c5)O[C@@]4(C(=O)CO)[C@@]3(C)C[C@H](O)[C@@]12F [Compound 18] was run?
The pEC50 was 8.92.

With C[C@]12C=CC(=O)C=C1[C@@H](F)C[C@H]1[C@@H]3C[C@H]4O[C@@H](c5ccc(OCC(F)(F)CN)c(F)c5)O[C@@]4(C(=O)CO)[C@@]3(C)C[C@H](O)[C@@]12F [Compound 19] as the compound, how does the pEC50 read?
Its pEC50 is 7.62.

C[C@]12C=CC(=O)C=C1[C@@H](F)C[C@H]1[C@@H]3C[C@H]4O[C@@H](c5ccc(F)s5)O[C@@]4(C(=O)CO)[C@@]3(C)C[C@H](O)[C@@]12F [Compound 27] was tested. Which pEC50 did it give?
The pEC50 was 9.34.

How did the pEC50 turn out when C[C@]12C=CC(=O)C=C1[C@@H](F)C[C@H]1[C@@H]3C[C@H]4O[C@@H](c5sccc5F)O[C@@]4(C(=O)CO)[C@@]3(C)C[C@H](O)[C@@]12F [Compound 30a] was run?
Its pEC50 is 9.36.

C[C@]12C=CC(=O)C=C1[C@@H](F)C[C@H]1[C@@H]3C[C@H]4O[C@@H](C#Cc5ccccc5)O[C@@]4(C(=O)CO)[C@@]3(C)C[C@H](O)[C@@]12F [Compound 40] was tested. Which pEC50 did it give?
The pEC50 was 7.84.

C[C@]12C=CC(=O)C=C1[C@@H](F)C[C@H]1[C@@H]3C[C@H]4O[C@@H](C5CC6(CCOCC6)C5)O[C@@]4(C(=O)CO)[C@@]3(C)C[C@H](O)[C@@]12F [Compound 42] was tested. Which pEC50 did it give?
The pEC50 was 8.05.

C[C@]12C=CC(=O)C=C1[C@@H](F)C[C@H]1[C@@H]3C[C@H]4O[C@@H](c5cc6c(s5)CCCC6)O[C@@]4(C(=O)CO)[C@@]3(C)C[C@H](O)[C@@]12F [Compound 43] was tested. Which pEC50 did it give?
The pEC50 was 8.43.

C[C@@H](c1ccccc1)[C@@H]1O[C@@H]2C[C@H]3[C@@H]4C[C@H](F)C5=CC(=O)C=C[C@]5(C)[C@@]4(F)[C@@H](O)C[C@]3(C)[C@]2(C(=O)CO)O1 [Compound 50] was tested. Which pEC50 did it give?
The pEC50 was 7.64.

With C[C@]12C=CC(=O)C=C1CC[C@H]1[C@@H]3C[C@H]4O[C@@H](C5CCC5)O[C@@]4(C(=O)CO)[C@@]3(C)C[C@H](O)[C@@]12F [Compound 51] as the compound, how does the pEC50 read?
The pEC50 was 8.92.

With C[C@]12C=CC(=O)C=C1CC[C@H]1[C@@H]3C[C@H]4O[C@@H](c5sccc5F)O[C@@]4(C(=O)CO)[C@@]3(C)C[C@H](O)[C@@]12F [Compound 52a] as the compound, how does the pEC50 read?
The pEC50 was 9.24.

With C[C@]12C=CC(=O)C=C1CC[C@@H]1[C@@H]2[C@@H](O)C[C@@]2(C)[C@H]1C[C@H]1O[C@@H](c3sccc3F)O[C@]12C(=O)CO [Compound 53a] as the compound, how does the pEC50 read?
Its pEC50 is 9.05.

C[C@]12C=CC(=O)C=C1CC[C@@H]1[C@@H]2[C@@H](O)C[C@@]2(C)[C@H]1C[C@H]1O[C@@H](/C=C/C3CC3)O[C@]12C(=O)CO [Compound 58] was tested. Which pEC50 did it give?
Its pEC50 is 7.49.

With C[C@]12C=CC(=O)C=C1CC[C@@H]1[C@@H]2[C@@H](O)C[C@@]2(C)[C@H]1C[C@H]1O[C@@H](/C=C/c3cccc(N)c3)O[C@]12C(=O)CO [Compound 67] as the compound, how does the pEC50 read?
Its pEC50 is 6.76.

With C[C@]12C=CC(=O)C=C1CC[C@@H]1[C@@H]2[C@@H](O)C[C@@]2(C)[C@H]1C[C@H]1O[C@@H](C3CCC3)O[C@]12C(=O)CO [Compound 85] as the compound, how does the pEC50 read?
The pEC50 was 8.31.

system: antigen-driven (FITC) ear inflammation; assay: FITC antigen-driven ear inflammation in mice (ear swelling); assay type: in vivo, Balb/c mice; settings: 24 hours after FITC rechallenge, ip 20 mpk conjugate or antibody, 10 mpk dexamethasone
Procedure: Female Balb/c mice aged 6-7 weeks (Envigo Labs) were used. On day 0 ear thickness was measured in all mice using microcalipers. On day 0 mice were then sensitized to the antigen fluorescsein isothiocyanate (FITC) on a shaved flank by application of 50 microliters of 1% FITC in a formulation of 50% acetone:50% dibutyl phthalate. […] After 24 hours ear thickness was determined on the treated ear. […] Animals were bled for serum and sacrificed on day 9. […] Ear thickness and ELISA results were analyzed for differences in means with GraphPad Prism software by one-way ANOVA with Dunnett's multiple comparisons.

C[C@@H]1C[C@H]2[C@@H]3CCC4=CC(=O)C=C[C@]4(C)[C@@]3(F)[C@@H](O)C[C@]2(C)[C@@]1(O)C(=O)CO [dexamethasone, reference compound] was tested. Which “Mean Swelling (mm)” value did it give?
Its value is 0.07 mm.

system: parental GR-GAL4 Reporter (Luc)-HEK293 cell line (non-BAFF-expressing); assay: GR-GAL4 luciferase reporter assay, parental reporter cell line (Anti-BAFF conjugates); assay type: cell-based; settings: Table 22, 24 hour incubation; * = low confidence in EC50 due to curve fit
Procedure: as §1, §2

For belimumab [BAFF mAb (belimumab)], which EC50 is on record?
Its EC50 is > 500 nM.

same assay, conditions: parental line, 500 nM-[…]

With belimumab [BAFF mAb (belimumab)] as the compound, how does the “GR agonism over the complete dilution series” value read?
The value was “no GR agonism”.
